The IC50 is the concentration that inhibits the measured activity by half. A high value points to lower potency.

Assay [1] deals with T1, SSTR4 (Homo sapiens (Human), UniProt P31391). As to the kind of experiment: SSTR4 I-125 somatostatin competition binding assay. Particulars: membranes from CHO-K1 cells overexpressing SSTR4. From the text: The scintillator sheets are melted to filters using a heat block.
Assay [2] addresses T1, SSTR4. As to the kind of experiment: Inhibition of forskolin stimulated cAMP in cells overexpressing SSTR4. The assay is classed as cell-based. Particulars: inhibition of forskolin stimulated cAMP in CHO-K1 cells overexpressing SSTR4; read-out: SSTR4 Activity pEC50 (converted). The protocol: Inhibition of Forskolin Stimulated cAMP in Cells Overexpressing SSTR4
This cell-based assay measures the ability of compounds to inhibit forskolin stimulated cAMP in CHO-K1 cells overexpressing SSTR4. CHO-K1 cells overexpressing SSTR4 (CHO-SSTR4) are purchased from DiscoveRx (product code 95-0059C2). The CHO-SSTR4 cells are maintained in F12K media with 10% Fetal Bovine Serum (Hyclone), 1% Pen/Strep (Life Technologies), and 800 μg/mL G418 (Life Technologies). […] The next day, the culture media is removed from the cells and the cells are washed (added then removed) with Krebs Ringer Buffer (ZenBio, KRB-1000 mL). […] The cells are incubated in 10 μL compound/stimulation buffer for 30 minutes at room temperature. Cellular cAMP levels are detected with a HTRF LANCE Ultra cAMP kit (Perkin Elmer, catalog number TRF0264).
The assay is performed in accordance with the manufacturer's instructions. […] of diluted Eu—W8044 labeled streptavidin (dilution: 1:50 in cAMP Detection Buffer) is added to each well. Then 5 μL of diluted biotin cAMP (dilution: 1:150 in cAMP Detection Buffer) is added to each well. The plates are covered and allowed to incubate for 60 minutes at room temperature on a shaker. […] The pEC50 values are generated using Activity Base for Screening Data Management.

Another assay addresses SSTR1 (Homo sapiens (Human), UniProt P30872).

A value given as a limit tells only on which side of the number the result lay.
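Wherever IC50 is given: binding assay on CHO-K1 cell membranes overexpressing SSTR1, incubated 60 min at room temperature, bound fraction collected on filters and read by scintillation counting.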

T1 sequence (P31391 whole entry): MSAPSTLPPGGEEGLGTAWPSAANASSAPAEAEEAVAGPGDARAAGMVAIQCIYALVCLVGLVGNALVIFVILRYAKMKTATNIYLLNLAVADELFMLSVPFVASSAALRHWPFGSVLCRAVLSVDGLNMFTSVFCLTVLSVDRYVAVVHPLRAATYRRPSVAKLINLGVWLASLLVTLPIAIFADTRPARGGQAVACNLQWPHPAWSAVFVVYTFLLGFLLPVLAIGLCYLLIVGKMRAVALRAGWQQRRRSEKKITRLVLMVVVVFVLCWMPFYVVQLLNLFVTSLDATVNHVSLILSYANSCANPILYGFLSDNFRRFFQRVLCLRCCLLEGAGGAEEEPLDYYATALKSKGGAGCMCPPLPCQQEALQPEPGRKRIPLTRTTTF
Chain of SSTR1 (P30872 whole entry): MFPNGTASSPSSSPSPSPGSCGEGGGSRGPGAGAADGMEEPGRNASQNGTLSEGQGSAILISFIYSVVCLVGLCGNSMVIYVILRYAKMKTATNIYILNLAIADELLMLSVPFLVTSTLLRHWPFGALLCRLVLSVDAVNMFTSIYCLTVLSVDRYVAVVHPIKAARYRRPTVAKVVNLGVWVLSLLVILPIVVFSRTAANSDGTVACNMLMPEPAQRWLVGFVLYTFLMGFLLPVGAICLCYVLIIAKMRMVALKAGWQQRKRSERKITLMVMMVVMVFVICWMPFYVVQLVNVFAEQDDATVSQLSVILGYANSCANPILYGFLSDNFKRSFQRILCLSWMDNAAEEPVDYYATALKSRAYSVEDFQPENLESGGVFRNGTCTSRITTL
Description for SSTR1: Membranes from CHO-K1 cells overexpressing SSTR1 are purchased from Perkin Elmer (catalog number ES-520-M400UA). […] Then 10 μg of SSTR1 membranes in 50 μL assay buffer are added per well. The plate is incubated for 60 minutes at room temperature. […] The contents of the assay plate are transferred to filters with a TomTech harvester and washed 5 times with 20 mM HEPES, 100 mM NaCl. […] The scintillator sheets are melted to the filters using a heat block. The filters are then read in a MicroBeta scintillation counter. Binding Ki curves are generated using Activity Base for Screening Data Management and the results are reported as pIC50.

For the compound `C[C@@H]1C[C@H](NC(=O)C2(CN(C)c3cccc(Cl)n3)CC2)CCN1C` [Example 41, 1-(((6-chloropyridin-2-yl)(methyl)amino)methyl)-N-((2R,4R)-1,2-dimethylpiperidin-4-yl)cyclopropane-1-carboxamide], the “SSTR4 Binding pIC50” value at SSTR4 [1] is recorded as 6.53. Moreover, on SSTR4 [2], the EC50 was 56.2 nM. For the same compound, the IC50 on SSTR1 is greater than 50.1 µM.

Regarding `O=C(N[C@H]1CCNC[C@@H]1F)C1(Cc2ccccc2F)CC1` [Example 43, 1-(2-fluorobenzyl)-N-((3S,4S)-3-fluoropiperidin-4-yl)cyclopropane-1-carboxamide], the “SSTR4 Binding pIC50” value on SSTR4 [1] is on record as 6.87. At SSTR4 [2], the EC50 is 63.1 nM. The same compound had an IC50 against SSTR1 greater than 50.1 µM.

Take `COc1cccc(CC2(C(=O)N[C@H]3CCNC[C@@H]3F)CC2)c1` [Example 46, N-((3S,4S)-3-fluoropiperidin-4-yl)-1-(3-methoxybenzyl)cyclopropane-1-carboxamide]: at SSTR4 [1], the “SSTR4 Binding pIC50” value was 7.29. For the same compound, the EC50 on SSTR4 [2] was 11.7 nM. In addition, at SSTR1, the half-inhibitory concentration (IC50) was greater than 50.1 µM.

With `C[C@H]1C[C@@H](NC(=O)C(F)(F)Oc2ccccc2)CCN1` [Example 48, 2,2-difluoro-N-((2S,4S)-2-methylpiperidin-4-yl)-2-phenoxyacetamide], the “SSTR4 Binding pIC50” value on SSTR4 [1] is 5.43. Besides, the EC50 at SSTR4 [2] was 91.2 nM. For the same compound, at SSTR1, the IC50 was greater than 50.1 µM.

For the compound `C[C@@H]1C[C@H](NC(=O)C(F)(F)Oc2ccccc2)CCN1` [Example 51, 2,2-difluoro-N-((2R,4R)-2-methylpiperidin-4-yl)-2-phenoxyacetamide], the “SSTR4 Binding pIC50” value at SSTR4 [1] came out at 5.53. For the same compound, the EC50 on SSTR4 [2] was 35.5 nM. The compound further had a 50% inhibitory concentration (IC50) on SSTR1 greater than 50.1 µM.

Consider `C[C@H]1C[C@H](NC(=O)C(F)(F)Oc2ccccc2)CCN1` [Example 53, 2,2-difluoro-N-((2S,4R)-2-methylpiperidin-4-yl)-2-phenoxyacetamide], for which the “SSTR4 Binding pIC50” value at SSTR4 [1] came out at 5.43. Besides, the EC50 at SSTR4 [2] was 55 nM. The compound also registered an IC50 at SSTR1 greater than 50.1 µM.

Regarding `C[C@H]1CNCC[C@@H]1NC(=O)C(F)(F)Oc1ccccc1F` [Example 54, 2,2-difluoro-2-(2-fluorophenoxy)-N-((3S,4S)-3-methylpiperidin-4-yl)acetamide], the “SSTR4 Binding pIC50” value at SSTR4 [1] came out at 6.55. Moreover, the EC50 at SSTR4 [2] was 21.4 nM. This compound gave a concentration for half-maximal inhibition (IC50) against SSTR1 greater than 50.1 µM.

For the compound `C[C@H]1CNCC[C@@H]1NC(=O)C(F)(F)Oc1cccc(F)c1` [Example 55, 2,2-difluoro-2-(3-fluorophenoxy)-N-((3S,4S)-3-methylpiperidin-4-yl)acetamide], the “SSTR4 Binding pIC50” value on SSTR4 [1] is listed as 7.13. In addition, the EC50 on SSTR4 [2] was 5.25 nM. Also, the IC50 against SSTR1 is greater than 50.1 µM.

For the compound `Cc1ccccc1OC(F)(F)C(=O)N[C@H]1CCNC[C@@H]1C` [Example 56, 2,2-difluoro-N-((3S,4S)-3-methylpiperidin-4-yl)-2-(o-tolyloxy)acetamide], the “SSTR4 Binding pIC50” value at SSTR4 [1] was 7.14. In addition, the EC50 at SSTR4 [2] is 1.7 nM. The half-inhibitory concentration (IC50) on SSTR1 is 44.7 µM.

With `C[C@H]1CNCC[C@@H]1NC(=O)C(F)(F)Oc1ccc(F)cc1` [Example 58, 2,2-difluoro-2-(4-fluorophenoxy)-N-((3S,4S)-3-methylpiperidin-4-yl)acetamide], on SSTR4 [1], the “SSTR4 Binding pIC50” value stood at 6.77. Moreover, at SSTR4 [2], the EC50 is 5.01 nM. This compound also gave an IC50 at SSTR1 of 46.8 µM.

Take `C[C@H]1CNCC[C@@H]1NC(=O)C(F)(F)Oc1ccccc1Cl` [Example 64, 2-(2-chlorophenoxy)-2,2-difluoro-N-((3S,4S)-3-methylpiperidin-4-yl)acetamide]: the “SSTR4 Binding pIC50” value at SSTR4 [1] came to 7.25. For the same compound, the EC50 at SSTR4 [2] was 1.32 nM. The half-inhibitory concentration (IC50) against SSTR1 was 19.1 µM.

In the case of `O=C(NC1CCNCC1)C(F)(F)Oc1ccccc1Cl` [Example 70, 2-(2-chlorophenoxy)-2,2-difluoro-N-(piperidin-4-yl)acetamide], the “SSTR4 Binding pIC50” value on SSTR4 [1] is recorded as 6.48. Besides, the EC50 at SSTR4 [2] was 18.2 nM. The compound also had an IC50 on SSTR1 greater than 50.1 µM.

These data come from patent publication US20250188037A1, “N-(PYRROLIDIN-3-YL OR PIPERIDIN-4-YL)ACETAMIDE DERIVATIVES” (Takeda Pharmaceutical Company Limited, priority 2022, published 2025).
